Values quoted from earlier work, collected in patent US20100099894A1, “Method for the Synthesis of Cyclic Acetals by the Reactive Extraction of a Polyol in a Concentrated Solution” (priority 2006, published 2010).

Settings: aqueous solution, at room temperature; data from Yaw's Handbook

**Q.** Which solubility in water does the source give for `CC(=O)c1ccccc1` [acetophenone] here?
**A.** Its solubility in water is 6842 mg/kg.

**Q.** Which solubility in water does the source give for `O=Cc1ccccc1` [benzaldehyde] here?
**A.** The solubility in water was 6570 mg/kg.

**Q.** Which solubility in water does the source give for `CC(C)CC(=O)CC(C)C` [diisobutyl ketone] here?
**A.** Its solubility in water is 2640 mg/kg.

**Q.** Which solubility in water does the source give for `CC(C)C(=O)C(C)C` [diisopropyl ketone] here?
**A.** Its solubility in water is 5700 mg/kg.

**Q.** With `CCCCCCC=O` [n-heptanal] as the compound, how does the solubility in water read?
**A.** Its solubility in water is 1516 mg/kg.

**Q.** For `CCCCCCCC=O` [n-octanal], which solubility in water is on record?
**A.** Its solubility in water is 370 mg/kg.

**Q.** For `CCCCC=O` [pentanal], which solubility in water is on record?
**A.** Its solubility in water is 11700 mg/kg.

Same assay, conditions: background description of Solketal

**Q.** Which miscibility in water does the source give for `CC1(C)OCC(CO)O1` (centres unmarked) [Solketal] here?
**A.** The miscibility in water was “miscible in water”.
